Measured values as given in patent publication US20240158446A1, “CYCLIC COMPOUND HAVING SELECTIVE INHIBITORY ACTION ON KRAS OVER HRAS AND NRAS” (CHUGAI SEIYAKU KABUSHIKI KAISHA, priority 2021, published 2024).
Read-outs that look alike come from different tables or passages of the source. *1 amine or outer side, *2 acyl side, *3 side chain or, on linkers, in order; H or OH if unused. Where a SMILES comes first, the peptide text is derived from it. Bridges are numbered along the chain shown (N, C = ends). [ ]: non-standard residue; d: D form. The star is where a group is joined. hPhe(3-Cl-4-CF3) = N[C@@H](CCc1ccc(C(F)(F)F)c(Cl)c1)C(=O)O; NPrPhe(4-CF3) = CCCN[C@@H](Cc1ccc(C(F)(F)F)cc1)C(=O)O; X35 = COCCN([C@@H](Cc1ccc(C)cc1)C(=O)[*:2])[*:1]; NMeGly(cPent) = CN[C@H](C(=O)O)C1CCCC1; NMeD = CN[C@@H](CC(=O)O)C(=O)O; NMeL = CN[C@@H](CC(C)C)C(=O)O; Morpholide = C1CN(*)CCO1; NMeA = CN[C@@H](C)C(=O)O; Piperidide = C1CCN(*)CC1; Ac5c = NC1(C(=O)O)CCCC1; Aze = O=C(O)[C@@H]1CCN1; Sar = CNCC(=O)O

How the values were obtained:
[1] = molecular target: GDP-bound KRAS wild-type protein (Homo sapiens, UniProt P01116); test: Binding to KRAS by surface plasmon resonance (SPR), Single Cycle Kinetics; conditions: GDP-bound KRAS wild-type protein, read-out: KRAS KD
[2] = molecular target: GDP-bound NRAS wild-type protein (Homo sapiens, UniProt P01111); test: Binding to NRAS by surface plasmon resonance (SPR), Single Cycle Kinetics; conditions: for NRAS/KRAS (ratio of KD value with respect to GDP-bound NRAS wild-type protein to KD value with respect to KRAS): SPR KD ratio NRAS/KRAS, class symbols
[3] = molecular target: GDP-bound HRAS wild-type protein (Homo sapiens, UniProt P01112); test: Binding to HRAS by surface plasmon resonance (SPR), Single Cycle Kinetics; conditions: for HRAS/KRAS (ratio of KD value with respect to GDP-bound HRAS wild-type protein to KD value with respect to KRAS): SPR KD ratio HRAS/KRAS, class symbols
[4] = SPR, GDP-bound NRAS wild-type protein vs GDP-bound KRAS wild-type protein
[5] = SPR, GDP-bound HRAS wild-type protein vs GDP-bound KRAS wild-type protein
[6] = SPR Single Cycle Kinetics, 1:1 binding model

GDP-bound HRAS wild-type protein, sequence (P01112 whole entry): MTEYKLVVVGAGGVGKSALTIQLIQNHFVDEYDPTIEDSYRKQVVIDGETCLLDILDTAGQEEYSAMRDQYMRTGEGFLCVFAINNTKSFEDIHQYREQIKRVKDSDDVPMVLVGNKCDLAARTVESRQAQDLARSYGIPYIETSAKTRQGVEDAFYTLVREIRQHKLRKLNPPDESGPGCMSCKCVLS
GDP-bound KRAS wild-type protein, sequence (P01116 whole entry): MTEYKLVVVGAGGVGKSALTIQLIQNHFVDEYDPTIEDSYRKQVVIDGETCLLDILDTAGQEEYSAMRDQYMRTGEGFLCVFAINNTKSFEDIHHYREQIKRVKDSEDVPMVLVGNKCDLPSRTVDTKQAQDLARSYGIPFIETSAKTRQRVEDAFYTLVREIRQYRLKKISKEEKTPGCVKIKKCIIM
GDP-bound NRAS wild-type protein, sequence (P01111 whole entry): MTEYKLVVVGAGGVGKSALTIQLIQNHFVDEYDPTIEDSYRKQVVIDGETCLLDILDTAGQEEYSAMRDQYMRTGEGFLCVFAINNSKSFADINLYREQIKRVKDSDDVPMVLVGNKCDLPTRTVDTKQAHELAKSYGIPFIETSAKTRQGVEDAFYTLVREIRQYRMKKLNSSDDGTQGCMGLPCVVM

SMILES | Kd ([1]; SPR, Single Cycle Kinetics) | Kd [1, 6] | NRAS/KRAS (ratio of KD value for NRAS to KD value for KRAS) [2, 4] | HRAS/KRAS (ratio of KD value for HRAS to KD value for KRAS) [3, 5] | NRAS/KRAS (ratio of KD value with respect to GDP-bound NRAS wild-type protein to KD value with respect to KRAS) [2] | HRAS/KRAS (ratio of KD value with respect to GDP-bound HRAS wild-type protein to KD value with respect to KRAS) [3] | further results
CCO[C@@H]1C[C@H]2C(=O)NC3(CC(C)(C)C3)C(=O)N(C)[C@@H](C(CC)CC)C(=O)N(C)[C@H](C(=O)N(C)C)CC(=O)N(C)[C@@H](CC3CCC3)C(=O)N[C@@H]([C@@H](C)CC)C(=O)N(C)CC(=O)N(C)[C@H]3C/C=C\CCN(C3=O)[C@@H](Cc3ccc(C)cc3)C(=O)N(C)CC(=O)N[C@@H](CCc3ccc(C(F)(F)F)c(OC)c3)C(=O)N2C1 [PP2172] | 510 pM |  | A (a compound having 10 or more and less than 20 is denoted as A) | B (a compound having 3 or more and less than 10 is denoted as B) |  |  | 
CCCN1C(=O)[C@@H]2CCN2C(=O)[C@H](C)N(C)C(=O)[C@H]([C@@H](C)CC)NC(=O)[C@H](CC(C)C)N(C)C(=O)C[C@@H](C(=O)N2CCCCC2)N(C)C(=O)[C@H](C2CCCC2)N(C)C(=O)C2(CCCC2)NC(=O)[C@@H]2CCCN2C(=O)[C@H](CCc2ccc(C(F)(F)F)c(Cl)c2)NC(=O)CN(C)C(=O)[C@@H]1Cc1ccc(C(F)(F)F)cc1 [PP0180] ([NMeL]I[NMeA][Aze][NPrPhe(4-CF3)][Sar][hPhe(3-Cl-4-CF3)]P[Ac5c][NMeGly(cPent)][NMeD]-Piperidide; lactam N-11) |  | 720 pM | C (A compound having a KD ratio of 0.1 or more and less than 3 is denoted as C) | C (A compound having a KD ratio of 0.1 or more and less than 3 is denoted as C) |  |  | 
CC[C@H](C)[C@@H]1NC(=O)[C@H](CC(C)C)N(C)C(=O)C[C@@H](C(=O)N2CCOCC2)N(C)C(=O)[C@H](C2CCCC2)N(C)C(=O)C2(CCCC2)NC(=O)[C@@H]2CCCN2C(=O)[C@H](CCc2ccc(C(F)(F)F)c(Cl)c2)NC(=O)CN(C)C(=O)[C@H](Cc2ccc(C)cc2)N(CCOC)C(=O)[C@@H]2CCN2C(=O)[C@H](C)N(C)C1=O [PP0092] ([NMeL]I[NMeA][Aze][X35][Sar][hPhe(3-Cl-4-CF3)]P[Ac5c][NMeGly(cPent)][NMeD]-Morpholide; lactam N-11) |  | 150 pM | C (A compound having a KD ratio of 0.1 or more and less than 3 is denoted as C) | C (A compound having a KD ratio of 0.1 or more and less than 3 is denoted as C) |  |  | 
CCO[C@@H]1C[C@H]2C(=O)NC3(CC(C)(C)C3)C(=O)N(C)[C@@H](C3CCCC3)C(=O)N(C)[C@H](C(=O)N(C)CC)CC(=O)N(C)[C@@H](CC(C)C)C(=O)N[C@@H]([C@@H](C)CC)C(=O)N(C)CC(=O)N(C)[C@H]3C/C=C\CCN(C3=O)[C@@H](Cc3ccc(C(F)F)cc3)C(=O)N(C)CC(=O)N[C@@H](CCc3ccc(Cl)c(Cl)c3)C(=O)N2C1 [PP2827] |  | 380 pM |  |  | A (a compound having 10 or more and less than 20 is denoted as A) | B (a compound having 3 or more and less than 10 is denoted as B) | 
CCO[C@@H]1C[C@H]2C(=O)NC3(CCC3)C(=O)N(C)[C@@H](C3CCCC3)C(=O)N(C)[C@H](C(=O)N(C)C)CC(=O)N(C)[C@@H](CC3CCCC3)C(=O)N[C@@H]([C@@H](C)CC)C(=O)N(C)CC(=O)N(C)[C@H]3C/C=C\CCN(C3=O)[C@@H](Cc3ccc(C)cc3)C(=O)N(C)CC(=O)N[C@@H](CCc3cc(C)c(C(F)F)c(C)c3)C(=O)N2C1 [PP2675] |  | 4500 pM |  |  | A (a compound having 10 or more and less than 20 is denoted as A) | A (a compound having 10 or more and less than 20 is denoted as A) | 
CCCN(C)C(=O)[C@@H]1CC(=O)N(C)[C@@H](CC(C)C)C(=O)N[C@@H]([C@@H](C)CC)C(=O)N(C)CC(=O)N(C)[C@H]2C/C=C\CCN(C2=O)[C@@H](Cc2ccc(C(F)(F)F)cc2)C(=O)N(C)CC(=O)N[C@@H](CCc2cc(F)c(C(F)(F)F)c(F)c2)C(=O)N2C[C@H](OCC)C[C@H]2C(=O)NC2(CCC2)C(=O)N(C)[C@@H](C2CCCC2)C(=O)N1C [PP1387, (2S,8S,12R,14S,20S,23S,27S,30S,36S,38Z)-20-cyclopentyl-8-[2-[3,5-difluoro-4-(trifluoromethyl)phenyl]ethyl]-12-ethoxy-27-isobutyl-N,4,19,22,26,32,35-heptamethyl-30-[(1S)-1-methylpropyl]-3,6,9,15,18,21,25,28,31,34,42-undecaoxo-N-propyl-2-[[4-(trifluoromethyl)phenyl]methyl]spiro[1,4,7,10,16,19,22,26,29,32,35-undecazatricyclo[34.5.1.0^10,14]dotetracont-38-ene-17,1′-cyclobutane]-23-carboxamide] |  |  |  |  |  |  | Kd ([1]; SPR, Single Cycle Kinetics, 1:1 binding model): 98 pM; NRAS/KRAS (ratio of KD value for NRAS to KD value for KRAS) ([2]; SPR, GDP-bound NRAS wild-type protein vs GDP-bound KRAS wild-type protein, KD ratio class): A (a compound having 10 or more and less than 20 is denoted as A); HRAS/KRAS (ratio of KD value for HRAS to KD value for KRAS) ([3]; SPR, GDP-bound HRAS wild-type protein vs GDP-bound KRAS wild-type protein, KD ratio class): B (a compound having 3 or more and less than 10 is denoted as B)

Further lines, with some results ahead:

Kd ([1]; SPR, Single Cycle Kinetics) | Kd [1, 6] | SMILES | NRAS/KRAS (ratio of KD value for NRAS to KD value for KRAS) [2, 4] | HRAS/KRAS (ratio of KD value for HRAS to KD value for KRAS) [3, 5] | NRAS/KRAS (ratio of KD value with respect to GDP-bound NRAS wild-type protein to KD value with respect to KRAS) [2] | HRAS/KRAS (ratio of KD value with respect to GDP-bound HRAS wild-type protein to KD value with respect to KRAS) [3] | further results
820 pM |  | CCO[C@@H]1C[C@H]2C(=O)NC3(CCC3)C(=O)N(C)[C@@H](C(C)(C)C)C(=O)N(C)[C@H](C(=O)N3CCOCC3)CC(=O)N(C)[C@@H](CC(C)C)C(=O)N[C@@H]([C@@H](C)CC)C(=O)N(C)CC(=O)N(C)[C@H]3CCCCCN(C3=O)[C@@H](Cc3ccc(C(F)(F)F)cc3)C(=O)N(C)CC(=O)N[C@@H](CCc3cc(F)c(C(F)(F)F)c(F)c3)C(=O)N2C1 [PP0823] | A (a compound having 10 or more and less than 20 is denoted as A) | B (a compound having 3 or more and less than 10 is denoted as B) |  |  | 
 | 65 pM | CCO[C@@H]1C[C@H]2C(=O)NC3(CC(C)(C)C3)C(=O)N(C)[C@@H](C3CCCC3)C(=O)N(C)[C@H](C(=O)N(C)CC)CC(=O)N(C)[C@@H](COC)C(=O)N[C@@H]([C@@H](C)CC)C(=O)N(C)CC(=O)N(C)[C@H]3C/C=C\CCN(C3=O)[C@@H](Cc3ccc(C(F)(F)F)cc3)C(=O)N(C)CC(=O)N[C@@H](CCc3ccc(C(F)(F)F)c(Cl)c3)C(=O)N2C1 [PP2836] |  |  | A (a compound having 10 or more and less than 20 is denoted as A) | A (a compound having 10 or more and less than 20 is denoted as A) | 
 | 5100 pM | CC[C@H](C)[C@@H]1NC(=O)[C@H](CC(C)C)N(C)C(=O)C[C@@H](C(=O)N2CCOCC2)N(C)C(=O)[C@H](C2CCCC2)N(C)C(=O)C2(CCCC2)NC(=O)[C@@H]2C[C@H](OC)CN2C(=O)[C@H](CCc2cc(F)c(C(F)(F)F)c(F)c2)NC(=O)CN(C)C(=O)[C@H](Cc2ccc(C(F)(F)F)cc2)N2CCCCC[C@@H](C2=O)N(C)C(=O)CN(C)C1=O [PP0495] |  |  |  |  | NRAS/KRAS (ratio of KD value with respect to NRAS to KD value with respect to KRAS) [2, 4]: A (a compound having 10 or more and less than 20 is denoted as A); HRAS/KRAS (ratio of KD value with respect to HRAS to KD value with respect to KRAS) [3, 5]: B (a compound having 3 or more and less than 10 is denoted as B)
1400 pM |  | CCO[C@@H]1C[C@H]2C(=O)NC3(CCC3)C(=O)N(C)[C@@H](C3CCCC3)C(=O)N(C)[C@H](C(=O)N3CCOCC3)CC(=O)N(C)[C@@H](Cc3cccc(Cl)c3)C(=O)N[C@@H]([C@@H](C)CC)C(=O)N(C)CC(=O)N(C)[C@H]3CCCCCN(C3=O)[C@@H](Cc3ccc(C(F)(F)F)cc3)C(=O)N(C)CC(=O)N[C@@H](CCc3cc(F)c(C(F)(F)F)c(F)c3)C(=O)N2C1 [PP0857] | B (a compound having 3 or more and less than 10 is denoted as B) | B (a compound having 3 or more and less than 10 is denoted as B) |  |  | 
